pIC50: −log10 of the molar value. Like-named read-outs stand apart in the source and are kept apart here.
Columns and labels:
Type in all cases: biochemical
PTP-MEG2 = target: T1, PTP-MEG2 (Homo sapiens, UniProt P43378); assay: Enzymatic assay with pNPP as substrate, PTP-MEG2; settings: pH 6.0, 37°C 30 min
T1 construct: host or cells: E. coli
T1 sequence (P43378 1-593): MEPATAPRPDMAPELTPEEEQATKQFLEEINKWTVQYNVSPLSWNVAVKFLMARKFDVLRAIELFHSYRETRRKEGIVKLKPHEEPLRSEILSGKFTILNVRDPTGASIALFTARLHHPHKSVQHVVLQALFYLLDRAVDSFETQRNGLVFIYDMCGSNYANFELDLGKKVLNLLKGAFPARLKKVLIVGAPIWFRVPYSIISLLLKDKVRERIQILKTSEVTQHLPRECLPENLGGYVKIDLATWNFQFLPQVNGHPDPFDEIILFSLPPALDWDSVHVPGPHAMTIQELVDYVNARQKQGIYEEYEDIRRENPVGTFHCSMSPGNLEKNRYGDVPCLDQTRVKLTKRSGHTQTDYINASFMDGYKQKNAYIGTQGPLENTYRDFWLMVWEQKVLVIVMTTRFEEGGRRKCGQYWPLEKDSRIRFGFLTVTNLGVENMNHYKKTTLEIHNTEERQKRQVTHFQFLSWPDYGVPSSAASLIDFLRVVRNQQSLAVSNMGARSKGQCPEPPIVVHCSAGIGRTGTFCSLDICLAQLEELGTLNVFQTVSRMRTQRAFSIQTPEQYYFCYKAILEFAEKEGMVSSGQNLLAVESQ
Method: (§1) Briefly, pNPP was hydrolyzed by PTPs to give para-nitrophenol. Para-nitrophenol converts into para-nitrophenolate (pNP), measured with a spectrophotometer after stopping solution was added. The regents and chemicals used in this assay are as follows: Ni-NTA labeled human recombinant PTPs expressed in E coli; de-phosphorylation assay buffer (50 mM citrate (pH 6.0), 0.1 M NaCl, 1 mM EDTA and 1 mM dithiothreitol (DTT)); substrate (2 mM pNPP) in assay buffer; stopping solution (0.2 M sodium hydroxide). PTPs and test-compounds with geometrically increasing concentrations were mixed in 50 μL buffer in each well of a 96-well plate. An equivalent volume of buffer without PTPs was used as blank control. After pre-incubation for 15 min at room temperature, the substrate (50 μL) was added into each well and incubated at 37°C for 30 min. Stopping buffer was poured into each well on ice and the OD value was read at 405 nm against blank.

PTP1B = target: T2, PTP1B (Homo sapiens, UniProt P18031); assay: Enzymatic assay with pNPP as substrate, PTP1B; settings: pH 6.0, 37°C 30 min
T2 construct: host or cells: E. coli
T2 sequence (P18031 1-435): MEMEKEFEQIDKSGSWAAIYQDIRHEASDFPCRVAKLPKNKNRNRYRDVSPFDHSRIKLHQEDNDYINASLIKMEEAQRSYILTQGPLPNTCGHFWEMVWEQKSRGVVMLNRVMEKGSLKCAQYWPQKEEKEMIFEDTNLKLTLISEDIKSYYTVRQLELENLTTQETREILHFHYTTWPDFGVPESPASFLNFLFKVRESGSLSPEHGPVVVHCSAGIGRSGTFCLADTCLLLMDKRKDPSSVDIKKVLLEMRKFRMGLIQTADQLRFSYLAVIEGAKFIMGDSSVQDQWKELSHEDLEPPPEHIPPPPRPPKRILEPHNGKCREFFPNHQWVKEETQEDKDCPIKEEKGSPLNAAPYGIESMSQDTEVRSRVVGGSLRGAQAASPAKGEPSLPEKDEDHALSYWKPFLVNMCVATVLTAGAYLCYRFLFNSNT
Method: as §1

TCPTP = target: T3, TCPTP (Homo sapiens, UniProt P17706); assay: Enzymatic assay with pNPP as substrate, TCPTP
T3 construct: host or cells: E. coli
T3 sequence (P17706 1-415): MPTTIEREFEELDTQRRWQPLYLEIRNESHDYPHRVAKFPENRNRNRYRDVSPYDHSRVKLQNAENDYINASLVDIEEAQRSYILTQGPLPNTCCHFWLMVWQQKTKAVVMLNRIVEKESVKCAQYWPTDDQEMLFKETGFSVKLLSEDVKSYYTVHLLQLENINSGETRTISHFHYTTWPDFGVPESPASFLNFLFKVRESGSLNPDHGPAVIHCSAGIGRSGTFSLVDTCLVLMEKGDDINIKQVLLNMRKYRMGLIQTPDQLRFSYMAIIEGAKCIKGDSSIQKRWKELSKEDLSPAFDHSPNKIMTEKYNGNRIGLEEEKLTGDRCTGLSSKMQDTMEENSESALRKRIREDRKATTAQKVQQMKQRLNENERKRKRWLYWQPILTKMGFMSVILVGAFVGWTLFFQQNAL
Method: as §1

pIC50 (PTP-MEG2)	pIC50 (PTP1B)	pIC50 (TCPTP)	pIC50 (TCPTP; pNPP substrate, pH 6.0, 37°C 30 min, read-out: IC50 TCPTP)	Structure (SMILES)
5.49	< 4.60	< 4.60		O=C(CSc1nc2ccccc2s1)Nc1cccc2ccccc12 [Compound 4a, 2-(benzo[d]thiazol-2-ylthio)-N-(naphthalen-1-yl)acetamide]
5.37	< 4.60		< 4.60	O=C(CCCSc1nc2ccccc2s1)Nc1cccc2ccccc12 [Compound 4b, 4-(benzo[d]thiazol-2-ylthio)-N-(naphthalen-1-yl)butanamide]

From publication PMC5239439, “Virtual screening, optimization, and identification of a novel specific PTP-MEG2 Inhibitor with potential therapy for T2DM” (Oncotarget, 2016)
